Results from ChEMBL document CHEMBL1147730, “3D-QSAR studies on cannabinoid CB1 receptor agonists: G-protein activation as biological data” (J Med Chem, 2006).

Columns and labels:
[1] = target: Cannabinoid receptor 1 (Rattus norvegicus) (UniProt P20272); assay: (§1) […] [35S]GTP-gamma-S from rat cerebellar CB1 receptor; assay type: functional; settings: Wistar
[2] = target: Cannabinoid receptor 1 (Rattus norvegicus, UniProt P20272); assay: as §1; assay type: functional, Wistar
Chain of Cannabinoid receptor 1 (P20272 whole entry): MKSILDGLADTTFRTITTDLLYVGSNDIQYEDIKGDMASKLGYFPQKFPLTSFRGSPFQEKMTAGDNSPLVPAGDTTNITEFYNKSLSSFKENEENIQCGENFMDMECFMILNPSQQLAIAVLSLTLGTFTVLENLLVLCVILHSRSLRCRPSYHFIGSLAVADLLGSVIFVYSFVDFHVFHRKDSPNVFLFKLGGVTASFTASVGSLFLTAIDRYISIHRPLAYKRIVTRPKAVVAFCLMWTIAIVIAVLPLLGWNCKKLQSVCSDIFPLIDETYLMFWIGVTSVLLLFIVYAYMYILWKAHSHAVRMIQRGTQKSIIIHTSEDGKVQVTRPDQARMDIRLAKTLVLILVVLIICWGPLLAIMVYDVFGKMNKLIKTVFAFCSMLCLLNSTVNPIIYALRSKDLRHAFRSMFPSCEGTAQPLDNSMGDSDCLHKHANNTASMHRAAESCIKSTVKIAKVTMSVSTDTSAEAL

Chain of Cannabinoid receptor 1 (Rattus norvegicus) (P20272 whole entry): as above

Structure (SMILES) | Emax [1] [%] | EC50 [2] [nM]
CCCCC/C=C\C/C=C\C/C=C\C/C=C\CCCCNC(=O)CC | 213 | 3160
CCCCCCC(C)(C)/C=C\C/C=C\C/C=C\C/C=C\CCCC(=O)OC(CO)CO | 332 | 50100
CCCCC/C=C\C/C=C\C/C=C\C/C=C\CCCNC(=O)CC | 260 | 2000
CCCCCCC(C)(C)/C=C\C/C=C\C/C=C\C/C=C\CCC(=O)OC(CO)CO | 382 | 50100
CCCCC/C=C\C/C=C\C/C=C\C/C=C\CCCCNC(=O)CCC | 199 | 3160
CCCCCCC(C)(C)/C=C\C/C=C\C/C=C\C/C=C\CCCCOC(CO)CO | 352 | 39800
CCCCC/C=C\C/C=C\C/C=C\C/C=C\CCCC(=O)NC1CC1 | 351 | 398
CCCCC/C=C\C/C=C\C/C=C\C/C=C\CCCC(=O)C(F)(F)F [ARACHIDONYL TRIFLUOROMETHYLKETONE] | 161 | 25100
CCCCC/C=C\C/C=C\C/C=C\C/C=C\CCCNC(=O)CCC | 210 | 1260
CCCCCCC(C)(C)c1cc(O)c2c(c1)OC(C)(C)[C@@H]1CC=C(CO)C[C@@H]21 | 396 | 5.01
CC1=CC[C@@H]2[C@@H](C1)c1c(O)cc(C(C)(C)CCCCBr)cc1OC2(C)C | 400 | 10
CCCCCc1cc(O)c2c(c1)OC(C)(C)[C@@H]1CCC(C)=C[C@@H]21 | 159 | –
CCCCCc1cc(O)c2c(c1)OC(C)(C)[C@@H]1CC=C(C)C[C@@H]21 [DELTA-8-TETRAHYDROCANNABINOL] | 184 | –
CCCCCCC(C)(C)/C=C\C/C=C\C/C=C\C/C=C\CCCOC(CO)CO | 474 | 50100
CCCCC/C=C\C/C=C\C/C=C\C/C=C\CCCNC(=O)CCO | 284 | 15800
CCCCC/C=C\C/C=C\C/C=C\C/C=C\CCCCNC(=O)CCO | 286 | 7940
CCCCCCC(C)(C)c1ccc([C@@H]2C[C@H](O)CC[C@H]2CCCO)c(O)c1 | 443 | –
CCCCC/C=C\C/C=C\C/C=C\C/C=C\CCCCOC(=O)[C@H](O)CO | 255 | –
CC1=CC[C@@H]2[C@@H](C1)c1c(O)cc(C(C)(C)CCCCC#N)cc1OC2(C)C | 369 | 10
CCCCC/C=C\C/C=C\C/C=C\C/C=C\CCCC(=O)NCCCl | 326 | 316
CCCCCc1cc(O)c2c(c1)OC(C)(C)c1ccc(C)cc1-2 [CANNABINOL] | 131 | 316
CCCC(C)(C)c1ccc2c(c1)OC(C)(C)[C@@H]1CC=C(C)C[C@@H]21 | 158 | 2000
